{"source": "ChEMBL document CHEMBL1201862", "about": "“PubChem BioAssay data set” (2004)", "key": {"[1]": {"molecular_target": "Aryl hydrocarbon receptor (Homo sapiens, UniProt P35869)", "sequence (P35869 whole entry)": "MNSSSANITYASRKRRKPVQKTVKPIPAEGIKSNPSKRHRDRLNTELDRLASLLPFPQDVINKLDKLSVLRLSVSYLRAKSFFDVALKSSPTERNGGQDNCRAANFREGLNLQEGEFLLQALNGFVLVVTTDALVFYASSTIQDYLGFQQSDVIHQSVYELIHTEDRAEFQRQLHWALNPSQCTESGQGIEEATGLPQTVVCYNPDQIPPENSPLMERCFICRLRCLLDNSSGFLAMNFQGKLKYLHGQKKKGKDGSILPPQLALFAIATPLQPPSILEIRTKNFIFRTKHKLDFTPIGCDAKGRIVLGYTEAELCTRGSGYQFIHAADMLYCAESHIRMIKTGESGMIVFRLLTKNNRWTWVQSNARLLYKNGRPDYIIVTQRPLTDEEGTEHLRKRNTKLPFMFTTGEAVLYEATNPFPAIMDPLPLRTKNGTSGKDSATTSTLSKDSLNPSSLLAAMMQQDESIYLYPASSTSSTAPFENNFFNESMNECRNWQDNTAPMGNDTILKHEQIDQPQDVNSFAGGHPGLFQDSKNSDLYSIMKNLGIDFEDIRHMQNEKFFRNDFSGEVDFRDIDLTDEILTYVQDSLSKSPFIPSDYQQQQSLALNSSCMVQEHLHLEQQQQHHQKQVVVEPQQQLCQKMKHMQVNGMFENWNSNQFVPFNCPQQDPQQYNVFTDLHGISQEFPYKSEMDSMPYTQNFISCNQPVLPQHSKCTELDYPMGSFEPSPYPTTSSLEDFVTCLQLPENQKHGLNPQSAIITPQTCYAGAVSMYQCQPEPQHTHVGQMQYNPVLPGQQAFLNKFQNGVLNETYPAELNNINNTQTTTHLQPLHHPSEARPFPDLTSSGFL", "assay": "Luminescence-based cell-based high throughput dose response assay for activators of the Aryl Hydrocarbon Receptor (AHR). [Related pubchem assays: 2796 (Primary screen (AHR activators in singlicate)), 2845 (Confirmation screen (AHR activators in triplicate)), 434939 (Counterscreen (PXR activators in triplicate)), 2804 (Summary (AHR activators))]", "assay_type": "ADME"}, "[2]": {"assay": "half-maximal inhibitory concentration for glucagon-like peptide-1 release, STC-1 cell line, dose-response (AID 1117345)", "assay_type": "functional, cell-based"}, "[3]": {"assay": "Glucagon-like peptide 1 release potency, NCI-H716 cell line, dose-response, half-maximal inhibitory concentration (AID 1117344)", "assay_type": "functional, cell-based"}, "[4]": {"assay": "HeLa cell cytotoxicity, dose response, cytotoxicity control, CellTiter-Glo luminescence, dry powder, set 2 (AID 720593)", "assay_type": "functional, cell-based"}, "[5]": {"assay": "HEK293T cell cytotoxicity, dose response, cytotoxicity control, CellTiter-Glo luminescence, dry powder, set 2 (AID 720595)", "assay_type": "functional, cell-based", "settings": "HEK293"}, "[6]": {"assay": "P. falciparum Dd2 growth inhibitors, dose response, SYBR Green, dry powder samples (AID 1159566);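 also: potency for growth inhibition with lower SYBR green DNA signal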", "assay_type": "functional, cell-based"}, "[7]": {"assay": "HepG2 cell cytotoxicity, dose response, cytotoxicity control, cherry-picked samples (AID 1159577)", "assay_type": "functional, cell-based"}, "[8]": {"assay": "Plasmodium falciparum Dd2 Sybr green parasite growth Measured in Cell-Based and Microorganism Combination System Using Plate Reader - 2153-01_Inhibitor_Dose_DryPowder_Activity_Set3.", "assay_type": "functional"}, "[9]": {"assay": "P. falciparum Dd2 growth inhibitors, dose response, SYBR Green, dry powder samples, set 9 (AID 1159568)", "assay_type": "functional, cell-based"}, "[10]": {"assay": "P. falciparum ATP4 D1247Y mutant growth inhibitors, dose response, NITD609-resistant line, SYBR Green, dry powder (AID 1159571);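 also: parasites synchronized at ring stage by sorbitol before testing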", "assay_type": "functional, cell-based"}, "[11]": {"assay": "P. falciparum Dd2 growth inhibitors, dose response, SYBR Green, cherry-picked samples (AID 1159567)", "assay_type": "functional, cell-based"}, "[12]": {"assay": "HepG2 cell cytotoxicity, dose response, cytotoxicity control, plate reader, dry powder samples (AID 1159569);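 also: inhibitor potency with signal falling toward the positive control level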", "assay_type": "functional, cell-based"}, "[13]": {"assay": "P. falciparum 3D7-ScDHODH growth inhibitors, dose response, SYBR Green, dry powder samples (AID 1159570);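 also: parasite growth measured after 72 hours of compound exposure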", "assay_type": "functional, cell-based"}, "[14]": {"assay": "A549 cell cytotoxicity, dose response, cytotoxicity control, plate reader, dry powder, set 7 (AID 743318)", "assay_type": "functional, cell-based"}, "[15]": {"test_system": "Danio rerio", "assay": "In Vivo Angiogenesis Dose-Response Confirmation. [Related pubchem assays: 732 (Assay preceding this confirmatory assay.)]", "assay_type": "functional, organism-based"}, "[16]": {"assay": "cells", "assay_type": "functional, cell-based", "settings": "INS-1E"}, "[17]": {"assay": "Dose-response inhibition of insulin secretion in a rat insulinoma line at 5 mM glucose (AID 1117331)", "assay_type": "functional, cell-based", "settings": "INS-1E"}, "[18]": {"assay": "Concentration-dependent survival of SW480 colon cancer line, luminescence detection with CellTiter-Glo, half-maximal inhibitory concentration (AID 1117338)", "assay_type": "functional"}, "[19]": {"assay": "HCT116 cell viability decrease, GSK3B pretreatment – CellTiter-Glo, IC50, dose response (AID 1117339)", "assay_type": "functional", "settings": "HCT-116"}, "[20]": {"assay": "RKO cell viability reduction, dose response, CellTiter-Glo luminescence (AID 1117322)", "assay_type": "functional"}, "[21]": {"assay": "cytotoxicity toward HCT116 cells – cell-based, CellTiter-Glo luminescence, IC50, dose response (AID 1117332)", "assay_type": "functional", "settings": "HCT-116"}, "[22]": {"assay": "cytotoxicity toward HT-29 cells – cell-based, CellTiter-Glo luminescence, IC50, dose response (AID 1117330)", "assay_type": "functional"}, "[23]": {"assay": "cytotoxicity toward Colo320 cells – cell-based, CellTiter-Glo luminescence, IC50, dose response (AID 1117334)", "assay_type": "functional", "settings": "COLO 320"}, "[24]": {"assay": "CellTiter-Glo luminescent dose response of DLD-1 viability loss (AID 1117352)", "assay_type": "functional"}, "[25]": {"assay": "SNU-C1 cell viability reduction, dose response, CellTiter-Glo luminescence (AID 1117323)", "assay_type": "functional, cell-based"}}, "note": "The source made the active and inactive calls."}
{"compound": "CCOCC(=O)Nc1cccc(-c2nc3cccnc3s2)c1C", "values": [{"measurement": "EC50", "setting": "[1]", "value": "4.22 µM (active)"}]}
{"compound": "CN(C)[C@@H]1C(O)=C(C(=O)NCN2CCCC2)C(=O)[C@@]2(O)C(O)=C3C(=O)c4c(O)cccc4[C@@](C)(O)C3C[C@@H]12", "note": "(stereo not given in full)", "values": [{"measurement": "IC50", "setting": "[2]", "value": "> 40 µM (inactive)"}, {"measurement": "IC50", "setting": "[3]", "value": "> 40 µM (inactive)"}]}
{"compound": "CCCCC(=O)NC(c1ccco1)c1ccc2cccnc2c1O", "note": "(stereo not given)", "values": [{"measurement": "AC50", "setting": "[4]", "value": "28.4 µM (active)"}, {"measurement": "AC50", "setting": "[5]", "value": "3.78 µM (active)"}]}
{"compound": "CCCNC(=O)N1[C@H](C#N)[C@H](c2ccc(C#Cc3ccc(F)cc3)cc2)[C@@H]1CO", "values": [{"measurement": "AC50", "setting": "[6]", "value": "123 nM (active)"}, {"measurement": "AC50", "setting": "[7]", "value": "> 39 µM (inactive)"}, {"measurement": "AC50", "setting": "[8]", "value": "150 nM (active)"}, {"measurement": "AC50", "setting": "[9]", "value": "57.5 nM (active)"}, {"measurement": "AC50", "setting": "[10]", "value": "101 nM (active)"}, {"measurement": "AC50", "setting": "[11]", "value": "< 300 nM (active)"}, {"measurement": "AC50", "setting": "[12]", "value": "41.4 µM (active)"}, {"measurement": "AC50", "setting": "[13]", "value": "3.48 µM (active)"}]}
{"compound": "Cc1ccc(C(C)C)c(OCCn2c(=S)[nH]c3cccc(F)c32)c1", "values": [{"measurement": "AC50", "setting": "[14]", "value": "30.2 µM (active)"}]}
{"compound": "O=C1C(c2c(O)[nH]c3ccc(F)cc23)=Nc2ccccc21", "values": [{"measurement": "IC50", "setting": "[15]", "value": "2.17 µM (active)"}]}
{"compound": "CC(C)(Cc1c[nH]c2ccccc12)NCC(O)COc1ccccc1C#N", "note": "(stereo not given) [BUCINDOLOL]", "values": [{"measurement": "IC50", "setting": "[16]", "value": "> 33.3 µM (inactive)"}, {"measurement": "IC50", "setting": "[17]", "value": "15 µM (inactive)"}]}
{"compound": "CNC(=O)Oc1cccc2ccccc12", "note": "[CARBARIL]", "values": [{"measurement": "IC50", "setting": "[18]", "value": "> 20 µM (inactive)"}, {"measurement": "IC50", "setting": "[19]", "value": "> 20 µM (inactive)"}, {"measurement": "IC50", "setting": "[20]", "value": "> 20 µM (inactive)"}, {"measurement": "IC50", "setting": "[21]", "value": "> 20 µM (inactive)"}, {"measurement": "IC50", "setting": "[22]", "value": "> 20 µM (inactive)"}, {"measurement": "IC50", "setting": "[23]", "value": "> 20 µM (inactive)"}, {"measurement": "IC50", "setting": "[24]", "value": "> 20 µM (inactive)"}, {"measurement": "IC50", "setting": "[25]", "value": "> 20 µM (inactive)"}]}
